Measurements taken from patent US20240307426A1, “USE OF SGLT-2 INHIBITORS FOR THE PREVENTION AND/OR TREATMENT OF RENAL DISEASES IN NON-HUMAN MAMMALS” (BOEHRINGER INGELHEIM VETMEDICA GMBH, priority 2021, published 2024).

System: cats with chronic kidney disease (CKD)
Assay: Exploratory clinical field trial in cats with CKD (Example 3)
Type: in vivo, cat
Parameters: key to IRIS Stage (based on serum creatinine level) / IRIS Stage (based on creatinine level) / IRIS Stage (based on the creatinine level): IRIS CKD stage assigned from serum creatinine (IRIS 2019)
Conditions: for Phosphorus: ref 0.8-2.2; for Serum creatinine: ref 0.9-2.3; for Potassium: ref 3.3-5.8; for UPC: ref <0.33
Procedure: The clinical trial was conducted at three animal clinics. Overall, 9 cats with chronic kidney disease (CKD) were included in the study and treated once daily orally with 1 mg/kg bodyweight velagliflozin for up to 150 days (depending on the time of enrollment).
Diagnosis of CKD was based on two measurements of serum creatinine concentration at least 2 weeks apart from each other (historical value and screening, and value at screening in fasted cats), as recommended by the International Renal Interest Society (IRIS 2019). In order to qualify for enrollment, serum creatinine levels needed to be ≥2.2 mg/dL, but <5.0 mg/dL.
Disease staging throughout the study was performed based on serum creatinine levels in accordance with the IRIS CKD staging (IRIS 2019).
All other cats were treated for >90 days had at least data for two time points under treatment available and were therefore evaluated. Progression of the disease, as well as IRIS staging in this study was based on the most reliable biomarker: serum creatinine.

[1] = case 200-001, 1 mg/kg po once daily
[2] = case 200-001, 1 mg/kg po once daily, whole study
[3] = case 200-001, Visit 1 (Day 30), 1 mg/kg po once daily
[4] = case 200-001, Visit 2 (Day 90), 1 mg/kg po once daily
[5] = case 200-001, Visit 3 (Day 111), 1 mg/kg po once daily
[6] = case 200-001, screening visit (before treatment)
[7] = case 200-003 (IRIS stage 3), removed early on day 30
[8] = case 200-004, 1 mg/kg po once daily, whole study
[9] = case 200-004, Visit 1 (Day 30), 1 mg/kg po once daily
[10] = case 200-004, Visit 2 (Day 90), 1 mg/kg po once daily
[11] = case 200-004, Visit 3 (Day 143), 1 mg/kg po once daily

N#Cc1ccc([C@@H]2O[C@H](CO)[C@@H](O)[C@H](O)[C@H]2O)cc1Cc1ccc(C2CC2)cc1 [velagliflozin, Velagliflozin]
decrease in serum creatinine within the observation period (3 of the seven evaluated cats, 1 mg/kg po once daily): ≥ 10%
renal parameters and clinical signs (IRIS stage 2 and 3 CKD cats, 1 mg/kg orally once daily): stabilized or even improved
expected glucosuric effect (all cats except cat 200-004 (no data recorded)): confirmed
Hematocrit (all cats under oral treatment with 1 mg/kg bodyweight): remained within the reference range
Systolic blood pressure (all cats, during the course of the study): < 160 mmHg
serum phosphate levels (all evaluated cases, except one measurement for case 200-001 on day 90): remained within the laboratories reference range throughout the study
Proteinuria (UPC) (all patients, 1 mg/kg po once daily): ≤ 0.33
Serum potassium levels (all treated cats, 1 mg/kg po once daily): stayed within the reference range
adverse events [1]: Two adverse events were reported for this patient: pectin responsive diarrhea for one day and pancreatitis
expected glucosuric effect [1]: confirmed
Quality of life according to the owner (course) [2]: remained very good
Serum potassium levels (course) [2]: decreased within the reference range
UPC (course) [2]: improved from 0.4 to 0.2
appetite and drinking behavior (course) [2]: remained normal
condition (clinical signs and biochemical parameters) [2]: stabilization of the condition
course of BUN [2]: remained stable
course of serum creatinine [2]: remained stable with one single measurement on Day 90 being increased
total urine protein [2]: reduced
BUN [3]: 38 mg/dL
IRIS Stage (based on the creatinine level) [3]: 2
Owner assessment - quality of life [3]: very good
Owner assessment of the appetite [3]: normal
Owner assessment of the drinking behavior [3]: normal
Systolic blood pressure [3]: 126.7 mmHg
Phosphorus [3]: 1.3 mmol/L
Serum creatinine [3]: 2.6 mg/dL
Potassium [3]: 4.6 mmol/L
Hematocrit (case 200-001, Visit 1 (Day 30), 1 mg/kg po once daily, ref 28.2-52.7): 38.5%
BUN [4]: 47 mg/dL
IRIS Stage (based on the creatinine level) [4]: 3
Owner assessment - quality of life [4]: very good
Owner assessment of the appetite [4]: normal
Owner assessment of the drinking behavior [4]: normal
Systolic blood pressure [4]: 122.7 mmHg
Phosphorus [4]: 2.4 mmol/L
Serum creatinine [4]: 3.2 mg/dL
Potassium [4]: 4.3 mmol/L
Hematocrit (case 200-001, Visit 2 (Day 90), 1 mg/kg po once daily, ref 28.2-52.7): 34.6%
UPC [4]: 0.2
BUN [5]: 41 mg/dL
IRIS Stage (based on the creatinine level) [5]: 2
Owner assessment - quality of life [5]: very good
Owner assessment of the appetite [5]: normal
Owner assessment of the drinking behavior [5]: normal
Systolic blood pressure [5]: 131.3 mmHg
Phosphorus [5]: 1.6 mmol/L
Serum creatinine [5]: 2.6 mg/dL
Potassium [5]: 4.3 mmol/L
Hematocrit (case 200-001, Visit 3 (Day 111), 1 mg/kg po once daily, ref 28.2-52.7): 32.6%
BUN [6]: 39 mg/dL
IRIS Stage (based on the creatinine level) [6]: 2
Owner assessment - quality of life [6]: very good
Owner assessment of the appetite [6]: normal
Owner assessment of the drinking behavior [6]: normal
Systolic blood pressure [6]: 152.0 mmHg
Phosphorus [6]: 1.4 mmol/L
Serum creatinine [6]: 2.6 mg/dL
Potassium [6]: 5.2 mmol/L
Hematocrit (case 200-001, screening visit (before treatment), ref 28.2-52.7): 37.4%
UPC [6]: 0.4
appetite and drinking behavior [7]: improving to normal
laboratory parameters [7]: worsening of a single measurement of laboratory parameters
quality of life [7]: good quality of life
adverse events (case 200-004, 1 mg/kg po once daily): No adverse event was reported
Quality of life according to the owner (course) [8]: remained very good
appetite and drinking behavior (course) [8]: remained normal
change of IRIS stage of the disease [8]: from 3 to 2
condition (biochemical parameters) [8]: improvement of the condition
course of serum creatinine [8]: decreased by a clinically relevant amount
BUN [9]: 42 mg/dL
IRIS Stage (based on serum creatinine level) [9]: 2
Owner assessment - quality of life [9]: very good
Owner assessment of the appetite [9]: normal
Owner assessment of the drinking behavior [9]: normal
Systolic blood pressure [9]: 148.0 mmHg
Phosphorus [9]: 1.3 mmol/L
Serum creatinine [9]: 2.7 mg/dL
Potassium [9]: 4.5 mmol/L
Hematocrit (case 200-004, Visit 1 (Day 30), 1 mg/kg po once daily, ref 28.2-52.7): 37.0%
BUN [10]: 36 mg/dL
IRIS Stage (based on serum creatinine level) [10]: 2
Owner assessment - quality of life [10]: very good
Owner assessment of the appetite [10]: normal
Owner assessment of the drinking behavior [10]: normal
Systolic blood pressure [10]: 129.3 mmHg
Phosphorus [10]: 1.3 mmol/L
Serum creatinine [10]: 2.5 mg/dL
Potassium [10]: 4.9 mmol/L
Hematocrit (case 200-004, Visit 2 (Day 90), 1 mg/kg po once daily, ref 28.2-52.7): 32.9%
BUN [11]: 38 mg/dL
IRIS Stage (based on serum creatinine level) [11]: 2
Owner assessment - quality of life [11]: very good
